Measurements: US20210137890A1, “DEUTERATED IMIDAZOLIDINEDIONE COMPOUNDS AND THEIR USES” (priority 2018, published 2021)
“Also recorded” adds a separate entry of the source. Read-outs that look alike come from different tables or passages of the source.

Legend:
[1] = Brain penetration of parental drug and metabolites in mice (PD study); details: mouse, po, 10 mg/kg
[2] = Phase I dose escalation study, human; cited from earlier work
[3] = biological target: T1, AR (Homo sapiens, UniProt P10275); details: read-out: Ki for AR binding
T1 sequence (P10275 1-920): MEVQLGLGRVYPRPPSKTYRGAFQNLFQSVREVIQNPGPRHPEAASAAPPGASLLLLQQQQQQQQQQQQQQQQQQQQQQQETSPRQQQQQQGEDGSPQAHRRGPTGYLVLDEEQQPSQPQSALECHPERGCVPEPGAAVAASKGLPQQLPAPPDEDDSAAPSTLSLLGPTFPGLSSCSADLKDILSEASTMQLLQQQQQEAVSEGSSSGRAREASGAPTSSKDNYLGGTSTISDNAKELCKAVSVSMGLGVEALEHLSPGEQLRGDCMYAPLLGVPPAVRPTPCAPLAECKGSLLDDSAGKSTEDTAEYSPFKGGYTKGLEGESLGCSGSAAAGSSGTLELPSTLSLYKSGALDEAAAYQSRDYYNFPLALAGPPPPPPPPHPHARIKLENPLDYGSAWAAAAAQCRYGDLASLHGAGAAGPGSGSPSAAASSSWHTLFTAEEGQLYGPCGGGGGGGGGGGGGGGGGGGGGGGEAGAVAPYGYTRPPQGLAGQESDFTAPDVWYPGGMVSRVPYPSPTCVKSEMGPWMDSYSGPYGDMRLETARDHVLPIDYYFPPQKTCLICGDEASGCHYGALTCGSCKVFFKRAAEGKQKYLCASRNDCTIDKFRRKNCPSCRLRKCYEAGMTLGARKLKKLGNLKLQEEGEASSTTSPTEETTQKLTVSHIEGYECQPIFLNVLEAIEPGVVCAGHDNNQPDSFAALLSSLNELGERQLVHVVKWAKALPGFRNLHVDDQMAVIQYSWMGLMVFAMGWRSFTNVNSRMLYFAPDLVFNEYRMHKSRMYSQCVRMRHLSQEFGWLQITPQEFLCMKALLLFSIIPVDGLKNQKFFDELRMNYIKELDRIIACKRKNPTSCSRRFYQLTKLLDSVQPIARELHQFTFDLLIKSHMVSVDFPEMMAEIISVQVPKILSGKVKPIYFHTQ

[4] = mouse, in vivo
[5] = test system: LNCaP; test: LNCaP growth inhibition; type: cell-based
[6] = dog, in vivo, 90 mg/kg
[7] = Clinical pharmacokinetic study of HC-1119 (Stage A, plasma M0, M1, M2); details: steady state, 80 mg HC-1119
Description: Single dose biological sample collection: Subjects were given a single fasting dose on the first day of the study. Blood samples were collected before (−0.5˜0 h) and after administration 0.5, 0.75, 1, 2 h (±5 min), 4, 8, 12 h (±15 min), 24 h (±30 min, Day 2 before administration). Venous blood (3 mL) was collected, set in an anticoagulant tube (type of anticoagulant was based on established analytical test methods).
Continuous administration of biological samples collected: Blood sample collected on continuous administration Day 7, 21, 35, 42, 56, 70, 84 before administration, on Day 84 after administration 0.5, 0.75, 1, 2 h (±5 min), 4, 8, 12 h (±15 min), 24 h (±30 min, Day 85 before administration). Venous blood (3 mL) was collected, set in an anticoagulant tube (type of anticoagulant was based on established analytical test methods).
Sample Handling: Samples were centrifuged (about 3000 rpm for 10 minutes) to separate the plasma as soon as possible. Isolated plasma samples were stored in duplicate in plasma cryostat, with the tagged population's enrollment number, subject's initials, date and time of collection. Plasma samples were stored in −60° C.˜−80° C. freezer as soon as possible. One blood sample was retained at the research center and one blood sample was shipped to a specialist testing company for plasma drug concentration determination.

[8] = test system: serum PSA; details: mCRPC patients
Description: There were two (2) stages or arms to the study, Stage A and Stage B.
During Stage A, the dose escalation tolerance (or tolerability) study was conducted using the traditional rule-based 3+3 design. All subjects in Stage A were involved in pharmacokinetic studies. […]
Stage A: PSA was dynamically observed to assess the initial dose-effectiveness based on data from subjects in each dose group until the end of the 12-week trial period. Serum PSA test, safety evaluation (including blood, liver and kidney function, electrocardiogram, etc.) were performed at the 6th, 8th, 10th and 12th weeks of visit, and the trial ended at the 12th week of visit.
They show the percentage change in PSA levels for subjects in the study. In both figures, the vertical axis represents the percent change in PSA levels from the baseline and the horizontal axis (numbers that are in line with the “0%”) identifies individual patient or subject numbers.

[9] = In vitro activity of metabolites M1 and M2; details: in vitro experiments

SMILES: CNC(=O)c1ccc(N2C(=S)N(c3ccc(C#N)c(C(F)(F)F)c3)C(=O)C2(C)C)cc1F [enzalutamide]
- concentration at 24 h ([1]; brain): 647 ng/g
- Kp at 24 h ([1]; brain/plasma): 0.31
- concentration at 24 h ([1]; plasma): 2100 ng/mL
- maximum tolerable dosage (MTD) [2]: 240 mg/day

SMILES: CC1(C)C(=O)N(c2ccc(C#N)c(C(F)(F)F)c2)C(=S)N1c1ccc(C(N)=O)c(F)c1 [M2]
- Ki [3]: 57 nM
- crossing of the blood-brain barrier (BBB) [4]: more readily cross the blood-brain barrier
- IC50 [5]: 0.13 nM

SMILES: [2H]C([2H])([2H])NC(=O)c1ccc(N2C(=S)N(c3ccc(C#N)c(C(F)(F)F)c3)C(=O)C2(C)C)cc1F [HC-1119, 4-{3-[4-cyano-3-(trifluoromethyl)phenyl]-5,5-dimethyl-4-oxo-2-thio-1-imidazolidinyl}-2-fluoro-N-trideuteromethylbenzamide]
- Brain ([4]; po, 10 mg/kg): 1393 ng/g
- Plasma ([4]; po, 10 mg/kg): 4686 ng/mL
- adult equivalent dose (HED) calculated from HNSTD [6]: 2916 mg/day
- C24 h for the combination of the active drugs (M0+M2) [7]: close to that of 160 mg enzalutamide
- maximum decrease in PSA levels by more than 50% from the baseline (maximum response rate) ([8]; 40 mg dose group): 66.7%
- rate of decrease in PSA levels by more than 50% from the baseline (response rate at week 12) ([8]; 40 mg dose group): 66.7%
- maximum decrease in PSA levels by more than 50% from the baseline (maximum response rate) ([8]; 80 mg dose group): 88.8%
- rate of decrease in PSA levels by more than 50% from the baseline (response rate at week 12) ([8]; 80 mg dose group): 75%
- maximum decrease in PSA levels by more than 50% from the baseline (maximum response rate) ([8]; 160 mg dose group): 50%
- rate of decrease in PSA levels by more than 50% from the baseline (response rate at week 12) ([8]; 160 mg dose group): 57.1%
- maximum decrease in PSA levels by more than 50% from the baseline (maximum response rate) ([8]; 200 mg dose group): 100%
- rate of decrease in PSA levels by more than 50% from the baseline (response rate at week 12) ([8]; 200 mg dose group): 33.3%

SMILES: CC1(C)C(=O)N(c2ccc(C#N)c(C(F)(F)F)c2)C(=S)N1c1ccc(C(=O)O)c(F)c1 [M1]
- in vitro activity [9]: inactive; also recorded: not active
